Entries after “also recorded” stand apart in the source; their conditions may differ.
Columns and labels:
[1] = tested on: optic nerve oligodendrocytes; assay: Oxygen and glucose deprivation (OGD) cell death in oligodendrocyte cultures (calcein-AM); format: cell-based, Sprague-Dawley rats; settings: 1h OGD, calcein 24h later; PPADS 100 µM, BBG 50 nM, CNQX 30 µM, APV 100 µM, apyrase 20 U/ml, ARL67156 100 µM, CBX 20 µM, FFA 100 µM, MFQ 1 nM
Experimental: (§1) Primary cultures of oligodendrocytes derived from optic nerves of 12 day-old Sprague-Dawley rats were obtained as previously described (Matute et al., 1997 Proc Natl Acad Sci U S A 94:8830-8835.).Cells were maintained at 37°C and 5% CO2 in a chemically defined medium (Matute et al., 1997 Proc Natl Acad Sci U S A 94:8830-8835.). After 2-4 days in vitro, cultures were composed of at least 98% 04/Ga1C^+ cells. No microglial cells were detected in these cultures. […] Cell death was determined 24h later using calcein-AM (Invitrogen) as previously described (Matute et al., 1997 Proc Natl Acad Sci U S A 94:8830-8835.). Antagonists were present during in vitro ischaemia and during the next 24h incubation period. […] To assay the levels of reactive oxygen species (ROS), cells were loaded with 40 µM 2',7'- dichlorodihyfluoresceindiacetate (DCFDA; Invitrogen) and 1 µM calcein red-orange (Molecular Probes) immediately after OGD. Calcein was used to quantify the number of cells within the reading field. Fluorescence was measured as above and values were plotted as the percentage of DCFDA/calcein red-orange fluorescence versus control. The changes in mitochondrial membrane potential were monitored with 5,5',6,6'-tetrachloro-1,1',3,3'-tetraethylbenzimidazolcarbocyanine iodide (JC-1; Molecular Probes). Immediately after OGD, cells were loaded with JC-1 (3 µM) at 37°C for 30 min. The changes in the membrane potential were calculated as the red (emission at 590)/green (emission at 520) ratio in each condition and results were normalized to control.

[2] = tested on: cultured optic nerve oligodendrocytes; assay: ATP release measurement (luciferin/luciferase) in oligodendrocyte cultures after OGD; format: cell-based, Sprague-Dawley rats; settings: 1h OGD in the presence of ARL67156; CBX 20 µM, FFA 100 µM, MFQ 1 nM (figure legend)
Experimental: as §1
(§2) ATP levels were measured using a Luciferin/Luciferase assay kit (Invitrogen) after 1h normoxia or OGD in oligodendrocyte cultures and in isolated optic nerves according to the manufacturer's instructions. The luminescence was measured with a luminometer Synergy-HT (BioTek) with an integration time of 3 sec. Because ATP was measured in the culture medium and in the solution bathing optic nerves, the concentration of ATP at the extracellular surface, near the vicinity of the receptor was underestimated (Joseph et al., 2003. J Biol Chem 278:23331-23342). The limit of ATP detection was 1 nM and luminescence was linear with increasing ATP concentrations to 1000 nM. The total amount of ATP was calculated according to standard curves and ATP release was expressed in percentage vs control.

[3] = target: T1, P2X7 receptors in oligodendrocytes (Rattus norvegicus, UniProt Q64663); assay: ATP-evoked inward currents in whole-cell clamped oligodendrocytes; format: cell-based, Sprague-Dawley rats; settings: -70 mV; CBX 20 µM, MFQ 1 nM
T1 construct: ATP (1 mM)-evoked inward currents in whole-cell clamped oligodendrocytes at -70 mV; endogenous in cells; host or cells: primary rat optic nerve oligodendrocytes
T1 sequence (Q64663 1-595): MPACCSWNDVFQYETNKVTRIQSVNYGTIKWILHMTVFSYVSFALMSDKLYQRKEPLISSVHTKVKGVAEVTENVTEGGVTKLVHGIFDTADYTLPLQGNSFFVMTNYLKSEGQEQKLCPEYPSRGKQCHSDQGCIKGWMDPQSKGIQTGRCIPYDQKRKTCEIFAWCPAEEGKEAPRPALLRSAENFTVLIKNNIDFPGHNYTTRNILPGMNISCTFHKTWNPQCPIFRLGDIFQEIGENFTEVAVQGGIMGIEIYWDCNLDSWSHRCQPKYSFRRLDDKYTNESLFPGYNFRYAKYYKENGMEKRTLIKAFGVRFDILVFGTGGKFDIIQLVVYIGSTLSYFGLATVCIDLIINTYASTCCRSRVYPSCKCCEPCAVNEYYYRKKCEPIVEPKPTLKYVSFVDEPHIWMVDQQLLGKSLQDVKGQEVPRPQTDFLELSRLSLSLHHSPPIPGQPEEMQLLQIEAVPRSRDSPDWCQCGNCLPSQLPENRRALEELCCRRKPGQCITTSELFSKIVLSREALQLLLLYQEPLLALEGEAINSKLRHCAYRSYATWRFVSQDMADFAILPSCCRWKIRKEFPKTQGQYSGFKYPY
Experimental: Primary cultures of oligodendrocytes derived from optic nerves of 12 day-old Sprague-Dawley rats were obtained as previously described (Matute et al., 1997 Proc Natl Acad Sci U S A 94:8830-8835.).Cells were maintained at 37°C and 5% CO2 in a chemically defined medium (Matute et al., 1997 Proc Natl Acad Sci U S A 94:8830-8835.). After 2-4 days in vitro, cultures were composed of at least 98% 04/Ga1C^+ cells. No microglial cells were detected in these cultures. […] Cell death was determined 24h later using calcein-AM (Invitrogen) as previously described (Matute et al., 1997 Proc Natl Acad Sci U S A 94:8830-8835.). […] Calcein was used to quantify the number of cells within the reading field. Fluorescence was measured as above and values were plotted as the percentage of DCFDA/calcein red-orange fluorescence versus control. The changes in mitochondrial membrane potential were monitored with 5,5',6,6'-tetrachloro-1,1',3,3'-tetraethylbenzimidazolcarbocyanine iodide (JC-1; Molecular Probes). […] The changes in the membrane potential were calculated as the red (emission at 590)/green (emission at 520) ratio in each condition and results were normalized to control.
Whole cell recordings were performed at room temperature and at a holding membrane potential of -70 mV. […] Data were analyzed with Excel and Prism software.

optic nerve = assay: ATP release measurement (luciferin/luciferase) in isolated optic nerves after OGD; design: species or system rats; settings: MFQ 1 µM, CBX 100 µM
Experimental: as §2
(§3) After 1h OGD at 37°C, the medium was replaced with fresh solution containing glucose and equilibrated with 95% O2, 5% CO2 and the nerves were incubated for another 2h at 37°C to simulate reperfusion.

optic nerves = assay: Optic nerve ischaemia (OGD), tissue damage by LDH release; design: species or system rats; settings: P28 rat optic nerves, 1h OGD + 2h reperfusion; PPADS 1 mM, BBG 50 nM, oATP 1 mM, apyrase 20 U/ml, MFQ 1 µM, CBX 100 µM, FFA 1 mM
Experimental: as §3

How did the “OGD-induced oligodendrocyte cell death” value [1] turn out when CC1(C)[C@@H](OC(=O)CCC(=O)O)CC[C@]2(C)[C@H]3C(=O)C=C4[C@@H]5C[C@@](C)(C(=O)O)CC[C@]5(C)CC[C@@]4(C)[C@]3(C)CC[C@@H]12 [CBX] was run?
The value was “inhibited”.

And the “ATP levels after OGD” value [2]?
Its value is “significantly reduced”.

What about the “ATP (1 mM)-evoked inward currents” value [3] of the same compound?
The value was “not reduced”.

And the “ATP levels during OGD” value (optic nerve)?
Its value is “reduced”.

And the “ischaemia-induced damage to optic nerves (LDH release)” value (optic nerves)?
The value was “reduced; also recorded: attenuated”.

— EP2322149A1, “Methods and compositions for the treatment of ischemia” (Universidad del Pais Vasco, priority 2009, dated 2011)
